Structures can show the parent of a compound that is named as a salt.
Assays:
Hepatitis C virus = assay: Hepatitis C patient cases: viral load; type: in vivo, human; conditions: Patient E1 on combination; words
Experimental: Case 1: A Hepatitis C Patient with Moderate Viral Load Treated with Brake™ Alone, with the Goal to Evaluate the Secondary Antiviral Impact of Improving the Hepatic Steatosis
Patient M1 was a person with a normal BMI.
They were not on Hepatitis C treatment since 2007; no antiviral drugs in the 3 years prior to Brake™ therapy. Treatment Course: Aphoeline Brake™ (formulation II) was added to their treatment at their second visit.
A Hepatitis C Patient with Combination Treatment of Brake™ and pegIFN/Riba, a Test of the Ability of Combinations to Reduce Viral Load Over that of pegIFN/Riba Alone
After two months with only moderate viral load response to this increased dosage, the patient had the addition of 10 gm per day of Aphoeline Brake™ added to their maximal dose pegIFN/Riba regimen.
Case 3: A Hepatitis C Patient with Advanced Cirrhosis, Treated with Brake™ Alone, a Test of the Ability to Control Hepatic Steatosis in the Face of Minimal Action on the Viral Load
Patient L1 is a Overweight (5′3″ 202 lb) but not overtly T2D […] with Hepatitis C genotype 1a since ˜2002. They had previously been treated with pegIFN/Riba but had been considered a failure in 2005. They have been untreated for Hepatitis C since that time. […] Their bilirubin was 1.5 when seen and they were on the liver transplant list. Their chronic medications included spironolactone, rifaximin, and nexium. […]

[1] = system: patients with incident AF; assay: Longitudinal cohort study of atrial fibrillation patients with or without warfarin; type: in vivo, human; conditions: adjusted for age and CHADS2; 95% CI 0.85, 2.13; not statistically significant
Experimental: We performed a longitudinal, cohort study with pharmacy and medical claims from 1997 to 2008 from a local health maintenance organization. Participants were identified with incident AF irrespective of warfarin status and followed through their duration within the database. Three clinical outcome measures were assessed including stroke, myocardial infarction, and bleeding. A neural net model was developed to identify patients at high risk of clinical event and defined to be an ‘enriched’ patient. The model defines the enrichment based on the top 10 minimum mean square error (MMSE) output parameters that describe the three clinical outcomes. The MMSE ranks the parameters in order from best to worst predictability when modeling the outputs. Predictors and outcome measures were ascertained with cox proportional hazards models.

[2] = system: metabolic syndrome / cardiovascular risk (FS index, CV index); assay: Cross comparison of FS index and CV index in treated patients (Example 2); type: in vivo, human; conditions: before, at 6 and 12 months, added to SoC; words
Experimental: Here we compare the same patients using FS index and CV index, in order to establish concordance in the risk scoring. We also include patients with MIs as examples of patients with CV events. For each of these patients, the FS index was calculated and the CV index was calculated, using an electronic spreadsheet designed for this purpose, and with the goal to evaluate concordance in the risk scoring. We also include patients with MIs as examples of patients with CV events.
To assess changes in metabolic syndrome, patient characteristics were analyzed using the FS Index.(44) Briefly, the FS index is a method for assessing cardiovascular risk associated with the glucose supply side in metabolic syndrome and T2D patients. The FS index is obtained from the individual patient's biological parameters, wherein a FS index value of greater than 60 is indicative that the individual is in need of therapy for metabolic syndrome or at risk for at least one cardiovascular complication associated with metabolic syndrome.

[3] = system: patients with multiple manifestations of MetS; assay: Treatment comparison of RYGB, Brake or atorvastatin (Lipitor), each added to standard of care (Example 3); type: in vivo, human; conditions: for LDL percent change: from baseline
Excerpt: FIG. 20. […] All patients were given 10 gm Brake™ once Daily, orally, 4 hrs prior to their main meal Pertinent demographic and clinical data were retrieved from medical records for all patients, and shown in FIG. 21. Variables included age, gender, body weight, lipid panel (low-density lipoprotein [LDL], high-density lipoprotein [HDL], triglycerides [TG], and total cholesterol [TC]), HbA1c, and liver function tests (aspartate aminotransferase [AST] and alanine aminotransferase [ALT]). Patients were followed monthly for up to one year to assess changes in the above stated variables. […] From the beginning, the patients who began the study with abnormal findings were separated from the patients with initially normal values and those with abnormal findings were further analyzed to define the magnitude of change as well as the percent change from baseline pre-therapy. Descriptive statistics were used in analyzing the baseline characteristics of each cohort. In addition to counts of how many patients had values above threshold, all descriptive characteristics are reported for each group as percentages and mean values, or where appropriate, the binary distribution percentages. […] This testing was applied to case and control cohorts: (a) using data for all treated patients, (b) using data for only those with abnormal range baselines (c) using cases where the initial value was within the normal range for the laboratory. Data were subsequently analyzed for percent change by biomarker from both of these two perspectives. Comparisons between groups were performed by mixed analysis of variances with a post hoc correction for multiple comparisons to analyze differences between treatments. Data are presented as mean±standard deviation (unless otherwise specified). A p<0.05 was considered evidence of significant change. All statistical analyses were conducted using SAS version 9.4 (SAS institute, Cary, N.C.).

[4] = system: ileal brake (PYY, motilin); conditions: ileal infusions in different amounts; words; cited from earlier work
[5] = decline from pre-treatment baseline, added to SoC, FIG. 21

Structure (SMILES): COc1cc(/C=C/C(=O)CC(=O)/C=C/c2ccc(O)c(OC)c2)ccc1O [curcumin]
- Hepatitis C virus status / control of viral load (Hepatitis C virus): loss of control for viral load

Structure (SMILES): CC(=O)CC(c1ccccc1)c1c(O)c2ccccc2oc1=O (stereo not shown) [warfarin]
- risk of negative clinical outcomes (aHR) [1]: 1.35

Structure (SMILES): CN(C)C(=N)N=C(N)N [metformin]
- Changes in FS index over pre-treatment baseline [2]: did not change the FS index

Structure (SMILES): CC(C)c1c(C(=O)Nc2ccccc2)c(-c2ccccc2)c(-c2ccc(F)cc2)n1CC[C@@H](O)C[C@@H](O)CC(=O)O (relative stereo) [atorvastatin, [R—(R*,R*)]-2-(4-fluorophenyl)-β,δ-dihydroxy-5-(l-methylethyl)-3-phenyl-4-[(phenylamino)-carbonyl]-1H-pyrrole-1-heptanoic acid; calcium salt (2:1) trihydrate]
- Total cholesterol decline ([3]; abnormal baseline cases, 6 and 12 months of treatment): 3.2%
- Body weight decline ([3]; at 12 months): 2.6%
- ALT decline [3, 5]: essentially no decline
- AST decline [3, 5]: 3.5%
- Triglyceride concentration decline [3, 5]: 18%
- HDL values ([3]; high dose (40 mg) atorvastatin alone, words): decreased
- LDL percent change ([3]; high dose (40 mg) atorvastatin, FIG. 21): −22.7%
- LDL percent change ([3]; low dose atorvastatin, FIG. 21): −10.1%
- HDL values ([3]; low dose atorvastatin, words): increased
- Changes baseline to post treatment in triglycerides ([3]; words): negligible
- Changes in ALT and AST over pre treatment baseline ([3]; words, atorvastatin 10 mg or 40 mg): Only minor changes

Structure (SMILES): CCCCCCCC/C=C\CCCCCCCC(=O)O [oleic acid]
- PYY levels [4]: dose-dependent increase
- motilin levels [4]: borderline decrease

From patent US10624913B2, “Diagnostics and methods for treatment of non-alcoholic hepatic steatosis and hepatic steatohepatitis, and prevention of complications thereof” (VOLANT HOLDINGS GMBH, priority 2011, dated 2020)
